Laboratory results reported in US20200197409A1, “HEPATITIS B VIRUS SURFACE ANTIGEN INHIBITOR” (FUJIAN COSUNTER PHARMACEUTICAL CO., LTD., priority 2017, published 2020).

Columns and labels:
HBV [1] = assay: In vivo pharmacodynamic study of hydrodynamic injection mouse HBV model (HDI-HBV) via tail vein; parameters: species or system Balb/c mice; conditions: mouse plasma
Description: Anti-hepatitis B virus activity of the compound of the embodiment in vivo was evaluated by HDI mice model.
Balb/c mice, 10% HP—F-CD as vehicle, test compound, RG7834, ETV (Entecavir), pAAV2-HBV 1.3mer plasmid (extracted with Qiagen EndoFree Plasmid Giga kit), main reagents including QIAamp96 DNA kit and FasStart Universal Probe Mast (ROX). The main instruments used in this experiment included centrifuge (Beckman Allegra X-15R), tissue grinder (QIAGEN-Tissue lyser II) and spectrophotometer (Thermo-NANODROP 1000).
b) On day 0, all mice were subjected to hydrodynamic injection with HBV plasmid DNA solution via tail vein. The plasmid DNA was pre-treated with sterile physiological saline before injection and stored at 4° C. until use. Plasmid DNA solution was injected via the tail vein at a dose of 8% of the body weight of the mouse within 5 seconds.
c) On the 1st day to the 7th day, the mice were administered with the compound or solvent by oral gavage for 7 days.
d) On the 1st day, 3rd day and 5th day, the blood was collected from the submandibular vein of the mice, and heparin sodium was used as an anticoagulant. The blood sample was centrifuged at 7,000×g, 4° C. to prepare the plasma for the determination of HBV DNA.
e) On the 7^h day, all mice were euthanized by CO2. The blood was collected from the heart to prepare plasma, and the liver tissue was collected. Two left hepatic lobe were isolated, the size of which was 70-100 mg, and were frozen by liquid nitrogen immediately after collection. One of the hepatic lobe was used for HBV DNA detection, and the other was used for backup.
The content of HBsAg in the serum of the mice was determined by ELISA (enzyme linked immunosorbent assay). The experimental procedure refers to the specification of HBsAg ELISA kit.
The inhibitory activity of the test compound on HBV replication on the mouse HDI model was determined by measuring the content of HBsAg in the plasma of the mice.

HBV [2] = assay: Anti-HBV activity on the hepatitis B virus mouse model (AAV-HBV); format: in vivo, C57BL/6 mice; conditions: 10 mg/kg, PO
Description: The AAV vector-mediated HBV infected mouse model is a fast and efficient HBV model. Using the high hepatotropism of the AAV vector, the recombinant adeno-associated type 8 virus carrying 1.3 copies of the HBV genome (rAAV8-1.3HBV) is injected into the tail vein of mice, which can efficiently introduce the carried 1.3 copy HBV genome into hepatocytes. Due to the characteristics of the AAV viral vector, the vector mediated by it can express for a long time. The AAV/HBV model can continuously replicate HBV DNA and express HBsAg and HBeAg in the liver of the mice.
The anti-HBV efficacy of the test compound in vivo was evaluated by determining the content of HBsAg in the serum of the mice after treatment with the test compound on AAV/HBV mouse mode.
C57BL/6 mice, 10% HP-f-CD as vehicle, reference compound TDF (Tenofovir), test compound, recombinant virus rAAVS-1.3HBV, main reagents of the experiment including QIAamp96 DNA kit and TaqMan® Universal PCR Master Mix, Hepatitis B Virus Surface Antigen Detection Kit, instruments including: centrifuge (Beckman Allegra X-15R), tissue grinder (QIAGEN-Tissue lyser II) and spectrophotometer (Thermo-NANODROP 1000).
a) All mice were orally administered on the 28th day after the virus injection, and the day was set as day 0. Submaxillary blood of all mice was collected for serum collection before administration. The mice were administered once a day for four weeks.
b) Submaxillary blood of all mice was collected for serum collection twice a week, the volume of the blood collected each time was approximately 100 μL.
c) On the 28th day, all mice were euthanized and the blood was collected from the heart for serum collection.
The content of HBsAg in the serum of the mice was determined by ELISA. The experimental procedure refers to the specification of HBsAg ELISA kit.
a) The anti-HBV activity of the test compound on AAV/HBV mice model was evaluated by determining the content of HBsAg in the plasma of the mice.

[3] = 14-day pre-toxicology tolerance test on rat; format: in vivo; conditions: once a day for 14 days, male rats
Description: [table] A total of 21 animals in this experiment were randomly divided into 7 groups. The animals were orally administered with the test compounds once a day for 14 consecutive days, and the toxicity was evaluated. Animal necropsy and tissue would be taken from the fixative, repaired, dehydrated, embedded, sectioned, stained and microscopically examined. These tissues included the liver, heart and lung of all animals, and spleen, stomach, duodenum, jejunum, ileum, and kidney of partial animals.

hepatitis B = conditions: woodchuck model, RG7834 as a single drug; cited from earlier work

In the case of `C=C1[C@H](CO)[C@@H](O)C[C@@H]1n1cnc2c(=O)[nH]c(N)nc21` [Entecavir], the “Log HBsAg (IU/mL) (Ave. value)” value (HBV [1]; dosing time day 1, 0.1 mg/kg QD gavage) is reported as 3.66 IU/mL, the “Log HBsAg (IU/mL) (Ave. value)” value (HBV [1]; dosing time day 3, 0.1 mg/kg QD gavage) is reported as 4.32 IU/mL and the “Log HBsAg (IU/mL) (Ave. value)” value (HBV [1]; dosing time day 5, 0.1 mg/kg QD gavage) is reported as 4.01 IU/mL. The “Log HBsAg (IU/mL) (Ave. value)” value (HBV [1]; dosing time day 7, 0.1 mg/kg QD gavage) was 2.46 IU/mL.

For `COCCCOc1cc2c(cc1OC)-c1cc(=O)c(C(=O)O)cn1[C@H](C(C)C)C2` [RG7834, reference compound], the “Log HBsAg (IU/mL) (Ave. value)” value (HBV [1]; dosing time day 1, 30 mg/kg QD gavage) was 3.75 IU/mL, the “Log HBsAg (IU/mL) (Ave. value)” value (HBV [1]; dosing time day 3, 30 mg/kg QD gavage) was 4.08 IU/mL and the “Log HBsAg (IU/mL) (Ave. value)” value (HBV [1]; dosing time day 5, 30 mg/kg QD gavage) was 3.59 IU/mL. The “Log HBsAg (IU/mL) (Ave. value)” value (HBV [1]; dosing time day 7, 30 mg/kg QD gavage) was 1.10 IU/mL, the “HBsAg content in the plasma of the mice” value (HBV [2]; day 4) was 3.54 IU/mL and the “HBsAg content in the plasma of the mice” value (HBV [2]; day 7) was 3.58 IU/mL. The “HBsAg content in the plasma of the mice” value (HBV [2]; day 11) was 3.70 IU/mL, the “HBsAg content in the plasma of the mice” value (HBV [2]; day 14) was 3.49 IU/mL and the “HBsAg content in the plasma of the mice” value (HBV [2]; day 18) was 3.70 IU/mL. The “HBsAg content in the plasma of the mice” value (HBV [2]; day 21) was 3.52 IU/mL, the “HBsAg content in the plasma of the mice” value (HBV [2]; day 25) was 3.50 IU/mL and the “HBsAg content in the plasma of the mice” value (HBV [2]; day 28) was 3.66 IU/mL. The “HBsAg content in the plasma of the mice” value (HBV [2]; day −1) was 4.56 IU/mL, the “histopathological changes associated with the test compound” value ([3]; high dose group (1000 mg/kg)) was “mild myocardial degeneration in the heart, mild degeneration of central hepatic cells in the small lobules of the liver, mild decrease of white pulp lymphocytes in the spleen, and moderate acute inflammation of the duodenal mucosa” and the “histopathological changes associated with the test compound” value ([3]; medium and low dose groups (300 and 100 mg/kg), heart, liver and lung examined) was “no histopathological changes associated with the test compound were observed”. The “reduction of HBV-DNA” value (hepatitis B) was 1.7 Log and the “reduction of surface antigens” value (hepatitis B) was 2.57 Log.
